System: Mitochondria-located protein genes
Test: DNA chip mRNA expression in yeast, mitochondria-located protein genes (Table 2)
Format: cell-based, Saccharomyces cerevisiae S288C
Settings: cells incubated two hours with the chemical substance
Description: Yeast (Saccharomyces cerevisiae S288C (α SUC2mal mel gap2 CUP1)) were incubated at 25° C. on YPD medium (yeast extract 1%, polypepton 2%, glucose 2%). One of toxic chemical substances was added to the cells at logarithmic growth phase, and the cells were further incubated for two hours. Cells were cultured without any chemical substance in the same condition, and were used as control. Concentrations of the chemical substances were defined to inhibit the growth of the yeast but not lead to death.
After completion of the incubation, the culture was centrifuged to collect the cells. To the cells, sodium acetate buffer (50 mM sodium acetate, 10 mM EDTA, 1% SDS) was added, and the mixture was shaken at 65° C. for five minutes, followed by returning to room temperature, and obtaining the supernatant, of which the procedures were repeated two times. To the supernatant, ½ amount of a solution of phenol/chloroform was added, and the mixture was centrifuged to give a supernatant, which was added with an equal amount of chloroform, and the mixture was centrifuged to give a supernatant. To the supernatant, an equal amount of isopropanol containing 0.3 M sodium acetate was added, and the mixture was allowed to stand at room temperature for 30 minutes, after which the mixture was centrifuged to give a sediment of the whole RNAs. Seventy % ethanol was added to the sediment, and the mixture was again centrifuged to give a sediment, which was then dried and dissolved in water. mRNA was isolated from the whole RNAs as followings. In view of the fact that a poly A chain is attached to the 3′ terminus of mRNA, a polynucleotide having a poly T structure which was immobilized on the surface of latex beads was used to trap the mRNA, and then the mRNA was washed and eluted with spine column (Oligotex-dT30<Super>mRNA Purification Kit, Takara). Reverse transcription of the mRNA was conducted with a reverse transcriptase (Super Script II Reverse Transcriptase; catalogue No. 18064-014, GibcoBRL) using fluorescence-labeled nucleotides to give cDNAs that were introduced with Cy3-dUTP or Cy5-dUTP during the reverse transcription.
The labeled cDNAs were dissolved in TE buffer (10mM Tris-HCl/1 mM EDTA, pH8.0), and the solution was dropped on the DNA chip containing the whole genes of yeast (DNA Chip Research Inc. Japan) so that the cDNAs were hybridized on the DNA chip at 65° C. for over 12 hours. The fluoresces intensity of the DNA chip was read with a scanner, and the ratio relative to the fluorescence intensity resulting from the absence of chemical substance was estimated as the following, which is shown in Tables 1 to 9: […]

CCCCCCCCCCCCc1ccc(S(=O)(=O)[O-])cc1.[Na+] [(17), sodium dodecylbenzosulfonate]
The level of expressed mRNA in the presence of chemical substance/The level of expressed mRNA in the absence of chemical substance (yeast gene YAL039C): 1.4
The level of expressed mRNA in the presence of chemical substance/The level of expressed mRNA in the absence of chemical substance (yeast gene YBL022C): 0.9
The level of expressed mRNA in the presence of chemical substance/The level of expressed mRNA in the absence of chemical substance (yeast gene YBL030C): 1.0
The level of expressed mRNA in the presence of chemical substance/The level of expressed mRNA in the absence of chemical substance (yeast gene YBL038W): 1.2
The level of expressed mRNA in the presence of chemical substance/The level of expressed mRNA in the absence of chemical substance (yeast gene YBL099W): 0.7
The level of expressed mRNA in the presence of chemical substance/The level of expressed mRNA in the absence of chemical substance (yeast gene YBR003W): 1.1
The level of expressed mRNA in the presence of chemical substance/The level of expressed mRNA in the absence of chemical substance (yeast gene YBR044C): 0.9
The level of expressed mRNA in the presence of chemical substance/The level of expressed mRNA in the absence of chemical substance (yeast gene YBR091C): 1.0
The level of expressed mRNA in the presence of chemical substance/The level of expressed mRNA in the absence of chemical substance (yeast gene YBR122C): 0.9
The level of expressed mRNA in the presence of chemical substance/The level of expressed mRNA in the absence of chemical substance (yeast gene YBR185C): 0.8
The level of expressed mRNA in the presence of chemical substance/The level of expressed mRNA in the absence of chemical substance (yeast gene YBR221C): 0.9
The level of expressed mRNA in the presence of chemical substance/The level of expressed mRNA in the absence of chemical substance (yeast gene YBR251W): 0.9
The level of expressed mRNA in the presence of chemical substance/The level of expressed mRNA in the absence of chemical substance (yeast gene YBR282W): 0.9
The level of expressed mRNA in the presence of chemical substance/The level of expressed mRNA in the absence of chemical substance (yeast gene YCL057W): 0.9
The level of expressed mRNA in the presence of chemical substance/The level of expressed mRNA in the absence of chemical substance (yeast gene YCR046C): 1.3
The level of expressed mRNA in the presence of chemical substance/The level of expressed mRNA in the absence of chemical substance (yeast gene YCR083W): 1.3
The level of expressed mRNA in the presence of chemical substance/The level of expressed mRNA in the absence of chemical substance (yeast gene YDL067C): 1.2
The level of expressed mRNA in the presence of chemical substance/The level of expressed mRNA in the absence of chemical substance (yeast gene YDL181W): 1.5
The level of expressed mRNA in the presence of chemical substance/The level of expressed mRNA in the absence of chemical substance (yeast gene YDL198C): 1.5
The level of expressed mRNA in the presence of chemical substance/The level of expressed mRNA in the absence of chemical substance (yeast gene YDR079W): 1.1
The level of expressed mRNA in the presence of chemical substance/The level of expressed mRNA in the absence of chemical substance (yeast gene YDR178W): 1.2
The level of expressed mRNA in the presence of chemical substance/The level of expressed mRNA in the absence of chemical substance (yeast gene YDR231C): 1.2
The level of expressed mRNA in the presence of chemical substance/The level of expressed mRNA in the absence of chemical substance (yeast gene YDR258C): 1.3
The level of expressed mRNA in the presence of chemical substance/The level of expressed mRNA in the absence of chemical substance (yeast gene YDR298C): 1.1
The level of expressed mRNA in the presence of chemical substance/The level of expressed mRNA in the absence of chemical substance (yeast gene YDR347W): 0.9
The level of expressed mRNA in the presence of chemical substance/The level of expressed mRNA in the absence of chemical substance (yeast gene YDR377W): 1.2
The level of expressed mRNA in the presence of chemical substance/The level of expressed mRNA in the absence of chemical substance (yeast gene YDR529C): 1.0
The level of expressed mRNA in the presence of chemical substance/The level of expressed mRNA in the absence of chemical substance (yeast gene YEL024W): 1.1
The level of expressed mRNA in the presence of chemical substance/The level of expressed mRNA in the absence of chemical substance (yeast gene YEL039C): 0.7
The level of expressed mRNA in the presence of chemical substance/The level of expressed mRNA in the absence of chemical substance (yeast gene YER178W): 1.1
The level of expressed mRNA in the presence of chemical substance/The level of expressed mRNA in the absence of chemical substance (yeast gene YFL016C): 1.2
The level of expressed mRNA in the presence of chemical substance/The level of expressed mRNA in the absence of chemical substance (yeast gene YGL018C): 0.8
The level of expressed mRNA in the presence of chemical substance/The level of expressed mRNA in the absence of chemical substance (yeast gene YGL187C): 0.9
The level of expressed mRNA in the presence of chemical substance/The level of expressed mRNA in the absence of chemical substance (yeast gene YGL191W): 1.2
The level of expressed mRNA in the presence of chemical substance/The level of expressed mRNA in the absence of chemical substance (yeast gene YGR008C): 1.7
The level of expressed mRNA in the presence of chemical substance/The level of expressed mRNA in the absence of chemical substance (yeast gene YGR028W): 1.5
The level of expressed mRNA in the presence of chemical substance/The level of expressed mRNA in the absence of chemical substance (yeast gene YGR062C): 0.9
The level of expressed mRNA in the presence of chemical substance/The level of expressed mRNA in the absence of chemical substance (yeast gene YGR076C): 0.9
The level of expressed mRNA in the presence of chemical substance/The level of expressed mRNA in the absence of chemical substance (yeast gene YGR082W): 0.9
The level of expressed mRNA in the presence of chemical substance/The level of expressed mRNA in the absence of chemical substance (yeast gene YGR174C): 1.3
The level of expressed mRNA in the presence of chemical substance/The level of expressed mRNA in the absence of chemical substance (yeast gene YGR244C): 1.9
The level of expressed mRNA in the presence of chemical substance/The level of expressed mRNA in the absence of chemical substance (yeast gene YHR008C): 0.9
The level of expressed mRNA in the presence of chemical substance/The level of expressed mRNA in the absence of chemical substance (yeast gene YIL155C): 1.1
The level of expressed mRNA in the presence of chemical substance/The level of expressed mRNA in the absence of chemical substance (yeast gene YJL096W): 1.1
The level of expressed mRNA in the presence of chemical substance/The level of expressed mRNA in the absence of chemical substance (yeast gene YJL102W): 1.0
The level of expressed mRNA in the presence of chemical substance/The level of expressed mRNA in the absence of chemical substance (yeast gene YJL133W): 0.8
The level of expressed mRNA in the presence of chemical substance/The level of expressed mRNA in the absence of chemical substance (yeast gene YJL166W): 1.7
The level of expressed mRNA in the presence of chemical substance/The level of expressed mRNA in the absence of chemical substance (yeast gene YJL180C): 0.9
The level of expressed mRNA in the presence of chemical substance/The level of expressed mRNA in the absence of chemical substance (yeast gene YJR045C): 0.7
The level of expressed mRNA in the presence of chemical substance/The level of expressed mRNA in the absence of chemical substance (yeast gene YJR077C): 1.0

Source: patent US8192962B2, “Processes for detecting toxic substances” (Daikin Industries, Ltd., priority 2001, dated 2012)
